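Tested at 5 concentrations; 48 h exposure; 96-well plates; endpoints linearly interpolated, else capped at highest concentration. GI50 = concentration required for 50% inhibition of growth.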 Calls of active or inactive are those of the source. No stated cut-off is given here; in the data, active = GI50 up to about 1.1 µM and inactive = higher.
Experiments:
Assay in all cases: growth of human tumour cells (NCI), 48 h
[1] = test system: SW-620
[2] = test system: DLD-1
[3] = test system: MDA-MB-231
[4] = test system: M19-MEL
[5] = test system: DU-145
[6] = test system: HCC 2998
[7] = test system: COLO 205
[8] = test system: OVCAR-3
[9] = test system: HCT-116
[10] = test system: ACHN
[11] = test system: SK-MEL-5
[12] = test system: UACC-257
[13] = test system: PC-3
[14] = test system: LXFL 529
[15] = test system: A549
[16] = test system: NCI-H522
[17] = test system: SNB-19
[18] = test system: SF-268
[19] = test system: K562
[20] = test system: SNB-78

Measured: GI50

O=C1C(Nc2ccc(S(=O)(=O)Nc3cnc4ccccc4n3)cc2)=C/C(=N\c2ccc(S(=O)(=O)Nc3cnc4ccccc4n3)cc2)c2ccccc21
inactive: [1] 17.5 µM | [2] 17.9 µM | [3] 23.1 µM | [4] 16.6 µM | [5] 16.9 µM | [6] 17.5 µM | [7] 18.5 µM | [8] 19.8 µM | [9] 18.3 µM | [10] 30.7 µM | [11] 17.5 µM | [12] 37.7 µM | [13] 20.5 µM | [14] 15.2 µM | [15] 19.7 µM | [16] 16.8 µM | [17] 15.3 µM | [18] 20 µM | [19] 28.1 µM | [20] 22.5 µM

Source: ChEMBL document CHEMBL1201862, “PubChem BioAssay data set” (2004)
